{"source": "patent US20240317727A1", "about": "(Duke University, priority 2018, published 2024)", "key": {"OVCAR-4": {"test_system": "OVCAR-4", "test": "NCI60 cell growth and viability: OVCAR-4", "format": "cell-based", "conditions": "OVCAR-4, Ovarian Cancer, two days"}, "SNB-19": {"test_system": "SNB-19", "test": "NCI60 cell growth and viability: SNB-19", "format": "cell-based", "conditions": "SNB-19, CNS Cancer, two days"}, "LOX IMVI": {"test_system": "LOX IMVI", "test": "NCI60 cell growth and viability: LOX IMVI", "format": "cell-based", "conditions": "Melanoma, two days"}, "HOP-92": {"test_system": "HOP-92", "test": "NCI60 cell growth and viability: HOP-92", "format": "cell-based", "conditions": "HOP-92, Non-Small Cell Lung Cancer, two days"}, "HSF1 target gene, Hsp70": {"test_system": "HSF1 target gene, Hsp70", "test": "Hsp70 transcript in mouse liver and heart tissue, qRT-PCR", "format": "in vivo", "conditions": "mice, 25 mpk three times per week i.p., vs vehicle, relative to GAPDH, FIG. 6B", "method": "The cells were treated for 96 hours with the indicated concentrations of the compounds of the disclosure and cell viability was measured with the AlamarBlue assay. […]. […] After sacrificing the mice on the last day of the administration, mouse liver and heart tissue was isolated, messenger RNA extracted and the transcript abundance of the HSF1 target gene, Hsp70, was evaluated by qRT-PCR relative to the internal RNA control, GAPDH. The results of the vehicle-treated versus Compound 0017-treated experiments were compared. […]; **=P<0.01 in accordance with one embodiment of the present disclosure."}, "SF-295": {"test_system": "SF-295", "test": "NCI60 cell growth and viability: SF-295", "format": "cell-based", "conditions": "SF-295, CNS Cancer, two days"}, "HCC-2998": {"test_system": "HCC-2998", "test": "NCI60 cell growth and viability: HCC-2998", "format": "cell-based", "conditions": "HCC-2998, Colon Cancer, two days"}, "SF-268": {"test_system": "SF-268", "test": "NCI60 cell growth and viability: SF-268", "format": "cell-based", "conditions": "SF-268, CNS Cancer, two days"}, "MDA-MB-435": {"test_system": "MDA-MB-435", "test": "NCI60 cell growth and viability: MDA-MB-435", "format": "cell-based", "conditions": "MDA-MB-435, Melanoma, two days"}, "KM12": {"test_system": "KM12", "test": "NCI60 cell growth and viability: KM12", "format": "cell-based", "conditions": "KM12, Colon Cancer, two days"}, "HCT-15": {"test_system": "HCT-15", "test": "NCI60 cell growth and viability: HCT-15", "format": "cell-based", "conditions": "HCT-15, Colon Cancer, two days"}, "K-562": {"test_system": "K-562", "test": "NCI60 cell growth and viability: K-562", "format": "cell-based", "conditions": "K-562, Leukemia, two days"}, "NCI-H460": {"test_system": "NCI-H460", "format": "cell-based", "conditions": "NCI-H460, Non-Small Cell Lung Cancer, two days"}, "MALME-3M": {"test_system": "MALME-3M", "test": "NCI60 cell growth and viability: MALME-3M", "format": "cell-based", "conditions": "Melanoma, two days"}, "A549/ATCC": {"test_system": "A549/ATCC", "test": "NCI60 cell growth and viability: A549/ATCC", "format": "cell-based", "conditions": "Non-Small Cell Lung Cancer, two days"}, "SK-MEL-2": {"test_system": "SK-MEL-2", "test": "NCI60 cell growth and viability: SK-MEL-2", "format": "cell-based", "conditions": "SK-MEL-2, Melanoma, two days"}, "OVCAR-8": {"test_system": "OVCAR-8", "test": "NCI60 cell growth and viability: OVCAR-8", "format": "cell-based", "conditions": "OVCAR-8, Ovarian Cancer, two days"}, "BT-549": {"test_system": "BT-549", "test": "NCI60 cell growth and viability: BT-549", "format": "cell-based", "conditions": "BT-549, Breast Cancer, two days"}, "NCI-H23": {"test_system": "NCI-H23", "format": "cell-based", "conditions": "NCI-H23, Non-Small Cell Lung Cancer, two days"}, "[1]": {"test_system": "HSF1 regulated transcripts", "test": "HSF1 regulated transcripts in C4-2 cells", "format": "cell-based, human", "conditions": "FIG. 4C"}, "HL-60(TB)": {"test_system": "HL-60(TB)", "test": "cells", "format": "cell-based", "conditions": "Leukemia, two days"}, "MCF7": {"test_system": "MCF7", "test": "NCI60 cell growth and viability: MCF7", "format": "cell-based", "conditions": "MCF7, Breast Cancer, two days"}, "[2]": {"conditions": "Homo sapiens, 48 h, read-out: log10 [GI50 (M)] (converted)"}, "[3]": {"conditions": "Homo sapiens, 48 h, read-out: log10 [LC50 (M)] (converted)"}}, "data": [{"compound": "O=C(Nc1ccc(F)cc1)Nc1ccc(Cl)c([N+](=O)[O-])c1", "note": "[Compound 0017, 1-(4-chloro-3-nitrophenyl)-3-(4-fluorophenyl)urea]", "values": [{"measurement": "GI50", "setting": "OVCAR-4; [2]", "result": "2.75e-06", "unit": "M"}, {"measurement": "CC50", "setting": "OVCAR-4; [3]", "result": "8.71e-05", "unit": "M"}, {"measurement": "log10 [TGI (M)]", "setting": "OVCAR-4", "result": "−4.85", "unit": "log10 M"}, {"measurement": "GI50", "setting": "SNB-19; [2]", "result": "3.55e-06", "unit": "M"}, {"measurement": "CC50", "setting": "SNB-19; [3]", "result": "4.68e-05", "unit": "M"}, {"measurement": "log10 [TGI (M)]", "setting": "SNB-19", "result": "−4.84", "unit": "log10 M"}, {"measurement": "GI50", "setting": "LOX IMVI; [2]", "result": "3.55e-06", "unit": "M"}, {"measurement": "CC50", "setting": "LOX IMVI; [3]", "result": "4.07e-05", "unit": "M"}, {"measurement": "log10 [TGI (M)]", "setting": "LOX IMVI", "result": "−4.91", "unit": "log10 M"}, {"measurement": "log10 [TGI (M)]", "setting": "HOP-92", "result": "−5.21", "unit": "log10 M"}, {"measurement": "GI50", "setting": "HOP-92; [2]", "result": "2.04e-06", "unit": "M"}, {"measurement": "CC50", "setting": "HOP-92; [3]", "result": "2.69e-05", "unit": "M"}, {"measurement": "Hsp70 transcript abundance in liver and heart tissue", "setting": "HSF1 target gene, Hsp70", "result": "inhibits expression of the HSF1 target Hsp70"}, {"measurement": "GI50", "setting": "SF-295; [2]", "result": "2.29e-06", "unit": "M"}, {"measurement": "CC50", "setting": "SF-295; [3]", "result": "3.09e-05", "unit": "M"}, {"measurement": "log10 [TGI (M)]", "setting": "SF-295", "result": "−5.10", "unit": "log10 M"}, {"measurement": "log10 [TGI (M)]", "setting": "HCC-2998", "result": "−4.84", "unit": "log10 M"}, {"measurement": "GI50", "setting": "HCC-2998; [2]", "result": "3.72e-06", "unit": "M"}, {"measurement": "CC50", "setting": "HCC-2998; [3]", "result": "4.27e-05", "unit": "M"}, {"measurement": "GI50", "setting": "SF-268; [2]", "result": "4.47e-06", "unit": "M"}, {"measurement": "CC50", "setting": "SF-268; [3]", "result": "5.75e-05", "unit": "M"}, {"measurement": "log10 [TGI (M)]", "setting": "SF-268", "result": "−4.76", "unit": "log10 M"}, {"measurement": "GI50", "setting": "MDA-MB-435; [2]", "result": "3.09e-06", "unit": "M"}, {"measurement": "CC50", "setting": "MDA-MB-435; [3]", "result": "4.37e-05", "unit": "M"}, {"measurement": "log10 [TGI (M)]", "setting": "MDA-MB-435", "result": "−4.94", "unit": "log10 M"}, {"measurement": "GI50", "setting": "KM12; [2]", "result": "3.31e-06", "unit": "M"}, {"measurement": "CC50", "setting": "KM12; [3]", "result": "9.12e-05", "unit": "M"}, {"measurement": "log10 [TGI (M)]", "setting": "KM12", "result": "−4.86", "unit": "log10 M"}, {"measurement": "log10 [TGI (M)]", "setting": "HCT-15", "result": "−4.92", "unit": "log10 M"}, {"measurement": "GI50", "setting": "HCT-15; [2]", "result": "2.95e-06", "unit": "M"}, {"measurement": "CC50", "setting": "HCT-15; [3]", "result": "3.72e-05", "unit": "M"}, {"measurement": "GI50", "setting": "K-562; Homo sapiens, K562, 48 h, read-out: log10 [GI50 (M)] (converted)", "result": "3.24e-06", "unit": "M"}, {"measurement": "CC50", "setting": "K-562; Homo sapiens, K562, 48 h, read-out: log10 [LC50 (M)] (converted)", "result": "≥ 0.0001", "unit": "M"}, {"measurement": "log10 [TGI (M)]", "setting": "K-562", "result": "−4.00", "unit": "log10 M"}, {"measurement": "GI50", "setting": "NCI-H460; [2]", "result": "2.69e-06", "unit": "M"}, {"measurement": "CC50", "setting": "NCI-H460; [3]", "result": "4.57e-05", "unit": "M"}, {"measurement": "log10 [TGI (M)]", "setting": "NCI-H460", "result": "−4.94", "unit": "log10 M"}, {"measurement": "GI50", "setting": "MALME-3M; [2]", "result": "2.34e-06", "unit": "M"}, {"measurement": "CC50", "setting": "MALME-3M; [3]", "result": "2.95e-05", "unit": "M"}, {"measurement": "log10 [TGI (M)]", "setting": "MALME-3M", "result": "−5.14", "unit": "log10 M"}, {"measurement": "GI50", "setting": "A549/ATCC; [2]", "result": "3.09e-06", "unit": "M"}, {"measurement": "CC50", "setting": "A549/ATCC; [3]", "result": "≥ 0.0001", "unit": "M"}, {"measurement": "log10 [TGI (M)]", "setting": "A549/ATCC", "result": "−4.79", "unit": "log10 M"}, {"measurement": "GI50", "setting": "SK-MEL-2; [2]", "result": "2.34e-06", "unit": "M"}, {"measurement": "CC50", "setting": "SK-MEL-2; [3]", "result": "2.51e-05", "unit": "M"}, {"measurement": "log10 [TGI (M)]", "setting": "SK-MEL-2", "result": "−5.23", "unit": "log10 M"}, {"measurement": "GI50", "setting": "OVCAR-8; [2]", "result": "2.95e-06", "unit": "M"}, {"measurement": "CC50", "setting": "OVCAR-8; [3]", "result": "≥ 0.0001", "unit": "M"}, {"measurement": "log10 [TGI (M)]", "setting": "OVCAR-8", "result": "−4.82", "unit": "log10 M"}, {"measurement": "log10 [TGI (M)]", "setting": "BT-549", "result": "−4.97", "unit": "log10 M"}, {"measurement": "GI50", "setting": "BT-549; [2]", "result": "2.88e-06", "unit": "M"}, {"measurement": "CC50", "setting": "BT-549; [3]", "result": "3.31e-05", "unit": "M"}, {"measurement": "GI50", "setting": "NCI-H23; [2]", "result": "2.63e-06", "unit": "M"}, {"measurement": "CC50", "setting": "NCI-H23; [3]", "result": "4.57e-05", "unit": "M"}, {"measurement": "log10 [TGI (M)]", "setting": "NCI-H23", "result": "−4.97", "unit": "log10 M"}, {"measurement": "HSF1 negatively regulated transcripts", "setting": "[1]", "result": "de-repressed"}, {"measurement": "expression of HSF1 positively regulated transcripts", "setting": "[1]", "result": "dose-dependently repressed"}, {"measurement": "GI50", "setting": "HL-60(TB); [2]", "result": "2.51e-06", "unit": "M"}, {"measurement": "CC50", "setting": "HL-60(TB); [3]", "result": "≥ 0.0001", "unit": "M"}, {"measurement": "log10 [TGI (M)]", "setting": "HL-60(TB)", "result": "−5.07", "unit": "log10 M"}, {"measurement": "GI50", "setting": "MCF7; [2]", "result": "2.63e-06", "unit": "M"}, {"measurement": "CC50", "setting": "MCF7; [3]", "result": "7.08e-05", "unit": "M"}, {"measurement": "log10 [TGI (M)]", "setting": "MCF7", "result": "−4.92", "unit": "log10 M"}]}]}
